Biological target: short 8-mer DNA zipper (Z1: ATGTCCAT) target interaction
Experiment: nanoswitch-FRET dose response with blocking oligonucleotides
Type: binding
Settings: 1 nM nanoswitches with Z1 target interaction
Excerpt: DNA nanoswitches were created as previously described (Koussa et al. 2015, Hansen et al. 2017). Briefly, circular ssDNA from the 7,249-nt bacteriophage M13 (New England BioLabs) was linearized by enzymatic cleavage of a single site using BtscI (New England BioLabs) and a site-specific oligonucleotide. This ssDNA scaffold was mixed with a molar excess of tiling 60-mer oligonucleotides (10:1), excluding the complementary regions for detection oligonucleotide and target interaction partners, and subjected to a temperature ramp from 90 to 20° C. at 1° C.−min-1. The detection oligonucleotides were added at 55° C. during the hybridization protocol. […]
The FRET from nanoswitches was quantified using a BioTek Neo plate reader. Specifically, the FRET emission was measured at 665 nm from […] and the non-FRET emission at 555 nm from […] using the built in monochromator-based system. The FRET ratio was then calculated as the ratio of the signal at 665 nm over 555 nm. For nanoswitch concentrations 2 nM and above, to reduce background, excitation at 540 nm was used instead and the FRET emission was measured at 680 nm.
FRET was measured in the presence of increasing concentrations of 7-mer (TGGACAT) or 8-mer ([…]) blocking oligonucleotides that bind to one side of the zipper. […]

Sequence	Ki (95% CI by bootstrapping (150 nM, 430 nM)) [µM]	Ki (95% CI by bootstrapping (1.2 μM, 3.8 μM)) [µM]
ATGGACAT [8-mer]	0.26	
TGGACAT [7-mer]		2

From patent US20230407374A1, “SYSTEMS AND METHODS FOR HIGH THROUGHPUT SCREENING OF MOLECULAR INTERACTIONS” (priority 2020, published 2023)
